Reference: patent publication US20020010210A1, “PHARMACEUTICAL PREPARATION AND METHOD FOR TREATING CANCER” (priority 1997, published 2002)

Columns and labels:
[1] = system: normal human adult mamma epidermis keratinocyte; assay: Intracellular ascorbic acid cumulative amount in keratinocytes (Example 1); format: cell-based; conditions: addition amount 2 μM, cultured 20 hours; difference to culture without addition
Experimental: About 6×10^5 cells of a normal human adult mamma epidermis keratinocyte (available from Kurashiki Boseki KK) were sowed on a 60 mm plate and cultured in a culturing medium (manufactured by Krashiki Boseki KK) for the increase of serum-free epidermis keratinocyte for 2 hours. After displacing with the same culturing medium having added thereto from 2 to 50 μM of ascorbic acid or a derivative thereof, the cells were further cultured for 20 hours. The cells were collected by trypsin treatment and the number of cells was counted using a Coulter Counter Model DN (trade name, manufactured by Coulter Electronics). The cells thus collected were washed with Hank's equilibrium salt solution, pulverized in an ultrasonic homgenizer, filtered through a Mol-cut II (UFP1LCC) (trade name, produced by Nippon Milipore KK), analyzed by HPLC using Shodex ODSpak F411A column (trade name, produced by Showa Denko KK), and the amount of ascorbic acid and derivatives thereof were measured to determine the intracellular cumulative amount.
As a control, culturing was performed in the same manner as above except for not adding ascorbic acid or a derivative thereof, and the amount of intracellular ascorbic acid was quantitatively determined.

[2] = system: bovine aortic endothelial BAE-2 cells; assay: Intracellular ascorbic acid cumulative amount in BAE-2 cells (Example 2); format: cell-based; conditions: 5 μM in culturing medium, cultured 20 hours
Experimental: About 6×10^5 bovine aortic endothelial BAE-2 cells (available from Hiroshima Prefecture University) were sowed on a 60 mmφ plate and cultured in a minimum essential culturing medium containing 20% dialyzed bovine fetus serum (available from Moregate) for 2 hours. After displacing with the same culturing medium containing 5 μM (in the case of magnesium ascorbic acid-2-phosphate, 50 μM) of ascorbic acid or a derivative thereof, the cells were further cultured for 20 hours.

[3] = system: spontaneous breast cancer rat cells (SST-2); assay: Lung metastasis of implanted SST-2 cells in SHR rats (Example 3); format: in vivo; conditions: 35 days after implantation; for Number of Metastasis Colonies (average), Peroral Administration: 1 mg/rat perorally from day of implantation to day 34; for Number of Metastasis Colonies (average), Subcutaneous Injection: 1 mg/rat subcutaneous injection from day of implantation to day 34
Experimental: 1×100,000 spontaneous breast cancer rat cells (SST-2) were subcutaneously implanted into the back of a rat (SHR rat) (5 rats per group) suffering from spontaneous hypertension. After 35 days, the rats were sacrificed, and the lung weight and the number of colonies formed were measured to examine the degree of metastasis of SST-2 to the lung. The compounds shown in Tables 3 and 4 each was administered perorally or through subcutaneous injection in a dose of 1 mg/rat over the period from the day of implantation to 34 days after implantation. The number of colonies formed was compared with that in the control group not subjected to any treatment, to examine metastasis to the lung.

| Intracellular Cumulative Amount [1] | Intracellular Cumulative Amount [2] | Compound | Number of Metastasis Colonies (average), Peroral Administration [3] | Number of Metastasis Colonies (average), Subcutaneous Injection [3] |
| --- | --- | --- | --- | --- |
| 0.0033 Pmole/cell | 0.0070 Pmole/cell | Magnesium L-ascorbic acid 2-phosphate-6-laurate |  |  |
|  | 0.0055 Pmole/cell | CCCCCCCC/C=C\CCCCCCCC(=O)OC[C@H](O)[C@H]1OC(=O)C(OP(=O)(O)O)=C1O [L-Ascorbic acid 2-phosphate-6-oleate] | 29.4 | 2.8 |
| 0.0040 Pmole/cell | 0.0068 Pmole/cell | Sodium L-ascorbic acid 2-phosphate-6-palmitate | 30.6 | 1.6 |
|  | 0.0042 Pmole/cell | CCCCCCCCCCCC(=O)OC[C@H](O)[C@H]1OC(=O)C(OP(=O)(O)O)=C1O [L-Ascorbic acid 2-phosphate-6-laurate] | 48.0 | 26.8 |
|  | 0.0025 Pmole/cell | O=C1O[C@H]([C@@H](O)COC(=O)c2ccccc2)C(O)=C1OP(=O)(O)O [L-Ascorbic acid 2-phosphate-6-benzoate] | 80.0 | 64.4 |
|  | 0.0068 Pmole/cell | CCCCC/C=C\C/C=C\C/C=C\C/C=C\CCCC(=O)OC[C@H](O)[C@H]1OC(=O)C(OP(=O)(O)O)=C1O [L-Ascorbic acid 2-phosphate-6-arachidonate] | 31.4 | 1.2 |
|  | 0.0072 Pmole/cell | CCCCCCCCCCCCCCCC(=O)OC[C@H](O)[C@H]1OC(=O)C(OP(=O)(O)O)=C1O [L-Ascorbic acid 2-phosphate-6-palmitate] | 34.2 | 2.4 |
|  | 0.0007 Pmole/cell | O=C1OC(C2COC(c3cccc([N+](=O)[O-])c3)O2)C([O-])=C1O.[Na+] [Sodium 5,6-(3-nitro)benzylidene-L-ascorbate] | 88.6 | 84.2 |
|  | <0.0003 Pmole/cell | O=C1O[C@H]([C@@H](O)CO)C(O)=C1OC1O[C@H](CO)[C@@H](O)[C@H](O)[C@H]1O (stereo partly drawn) [2-O-D-Glucopyranosil-L-ascorbic acid] | 87.2 | 90.6 |

| Compound | Intracellular Cumulative Amount [1] | Intracellular Cumulative Amount [2] | Number of Metastasis Colonies (average), Peroral Administration [3] | Number of Metastasis Colonies (average), Subcutaneous Injection [3] |
| --- | --- | --- | --- | --- |
| CC(CCC(C(=O)OC1=C(O)C(=O)O[C@@H]1[C@@H]1COC(c2ccccc2)O1)C(C)CC(C)(C)C)CC(C)(C)C (stereo partly drawn) [5,6-O-Benzylidene-3-O-[5,7,7-trimethyl-2-(1,3,3-timethylbutyl)]octanoylascorbic acid] |  | 0.0008 Pmole/cell | 87.4 | 89.6 |
